# Literature values as cited in patent US7365075B2, “Aryl sulfonamide compounds and uses related thereto” (Amgen Inc., priority 2003, dated 2008).
smiles,measurement,setting,value
CC1(C)[C@@H](OC(=O)CCC(=O)O)CC[C@]2(C)[C@H]3C(=O)C=C4[C@@H]5C[C@@](C)(C(=O)O)CC[C@]5(C)CC[C@@]4(C)[C@]3(C)CC[C@@H]12 [carbenoxolone],reduction of the intraocular pressure,normal patients,20%
same,detrimental effects of glucocorticoids on bone nodule formation,bone nodule formation,lessened
same,hepatic insulin sensitivity,humans,improved hepatic insulin sensitivity
